Data on 80 molecules can be found in the METLIN SMRT retention time set (Domingo-Almenara et al. 2019).

The data set can be described thus: gradient 5% acetonitrile 3 min, to 50% in 2 min, to 85% in 15 min, held 3 min, 100 µL/min. To be noted: column: Zorbax Extend-C18 2.1 x 50 mm; eluents: water / acetonitrile, 0.1% formic acid. In a few lines:
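Each retention time is based on an adduct peak selected computationally and verified by manual inspection. Measurements used HPLC–quadrupole time-of-flight mass spectrometry in positive and negative ionization mode on mixtures of ~100 pure standards. Chromatography ran on a Zorbax Extend-C18 column (2.1 × 50 mm, 1.8 μm) at 100 μL/min with water and acetonitrile, each containing 0.1% formic acid, and dead and dwell volumes of 40 μL and 900 μL.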
For the molecule `CCOc1ccc(NC(=O)C2CCN(S(C)(=O)=O)c3ccccc3O2)cc1` (stereo not given), the RP-LC retention time is 877 s.

As to `COc1ccc(CN2C[C@@H]3C(=O)N(C)C(=O)[C@@H]3C2)c(OC)c1`, the RP-LC retention time worked out at 587 s.

Molecule `COCC1CN(C2CCC2)CC12CCN(C(=O)c1sccc1C)CC2` (stereo not given) showed an RP-LC retention time of 597 s.

For `O=C(NC1CCN(Cc2ccccc2)CC1)c1cn2cc(Cl)ccc2n1`, the RP-LC retention time is 610 s.

In turn, `Cn1nc(-c2nnc(-c3ccc(F)cc3)o2)c2c1CCN(S(=O)(=O)c1ccc(Cl)cc1)C2` had an RP-LC retention time of 1020 s.

In turn, `COc1ccc(Cn2cccc2-c2nc(-c3ccncc3)no2)cc1` registered an RP-LC retention time of 1080 s.

Molecule `Cc1nnsc1C(=O)Nc1onc2c1CSC2` showed an RP-LC retention time of 666 s.

For `CCCC[C@@]1(C2CCCC2)Cc2cc(OCC(=O)O)c(Cl)c(Cl)c2C1=O`, the RP-LC retention time was found to be 1320 s.

`Cc1ccc(CNC(=O)CN2C(=O)NC3(CCCCC3)C2=O)cc1` returned an RP-LC retention time of 774 s.

As for `O=C(NCC(c1ccc2c(c1)OCO2)N1CCOCC1)C(=O)Nc1ccc(F)cc1F` (stereo not given), the RP-LC retention time was found to be 675 s.

Regarding `O=C(NCCc1ccccc1)N1CCC(c2noc(-c3ccccn3)n2)C1` (stereo not given), the RP-LC retention time was 742 s.

In turn, `Cc1cc(=O)n(CC(=O)Nc2cccc(F)c2)c(N2CCCC2)n1` registered an RP-LC retention time of 634 s.

For the molecule `CC(=O)N1CCc2cc(N3CC(C(=O)NCc4ccccc4C)CC3=O)ccc21` (stereo not given), the RP-LC retention time was 707 s.

`CC(C)NC(=O)Nc1cccnc1N1CCOCC1` displayed an RP-LC retention time of 863 s.

`O=C1CN(C(=O)c2ccccc2F)c2ccccc2N1` displayed an RP-LC retention time of 645 s.

`Cc1ccc(-c2noc(CN3N=NC4C(=O)N(c5ccc(F)cc5)C(=O)C43)n2)cc1` (stereo not given) gave an RP-LC retention time of 1020 s.

As to `O=S(=O)(c1cc(-c2noc(C3CCCC3)n2)cs1)N1CCOCC1`, the RP-LC retention time was 1200 s.

Molecule `Cc1ccc(-c2csc(-n3nc(C)c(CC(=O)Nc4ccc(Br)cc4)c3C)n2)cc1` returned an RP-LC retention time of 1350 s.

The molecule `Cc1ccccc1Oc1nccn2c(=O)n(CC(=O)NCc3ccccc3)nc12` showed an RP-LC retention time of 797 s.

`CC1CCN(c2nn(CC(=O)Nc3ccc4c(c3)CCC4)c(=O)c3ccccc23)CC1` came in with an RP-LC retention time of 1250 s.

In the case of `CCc1noc(-c2cccnc2N2CCCN(Cc3ccc(Br)cc3)CC2)n1`, the RP-LC retention time is 730 s.

On to `Cc1cccc(NC(=O)Cc2nnc(-c3cnccn3)o2)c1C`, for which the RP-LC retention time was 678 s.

`Cc1ccc(S(=O)(=O)N2CCCCC2)cc1-c1nnc(-c2ccccc2)o1` gave an RP-LC retention time of 1130 s.

`COC(=O)N1CCN(CCNC(=O)NC2CCCCC2)CC1` gave an RP-LC retention time of 503 s.

In the case of `Cc1c(F)cccc1NC(=O)N1CCCC1c1nncn1-c1ccccc1` (stereo not given), the RP-LC retention time worked out at 744 s.

Molecule `CCC(=O)NCc1nc(-c2ccccc2Cl)no1` showed an RP-LC retention time of 717 s.

In the case of `COC(=O)C(C)NC(=O)NCc1cccn1Cc1ccc(F)cc1` (stereo not given), the RP-LC retention time is 814 s.

`COc1cccc(CN2N=C(C(=O)N3CCOCC3)S(=O)(=O)c3cc(Cl)ccc32)c1` showed an RP-LC retention time of 887 s.

In the case of `CCN1CC(c2nc(-c3ccccc3)no2)C2(CCCC2)C1` (stereo not given), the RP-LC retention time amounted to 709 s.

Molecule `CCc1noc(-c2ccnc(-n3cnc(C(=O)NCc4ccccc4)c3)c2)n1` showed an RP-LC retention time of 866 s.

On to `Cc1ccc2[nH]cc(CCN3CC(C(=O)Nc4nnc(C(C)(C)C)s4)CC3=O)c2c1` (stereo not given), for which the RP-LC retention time was 801 s.

For `COC(=O)c1ccc(NC(=O)Cn2ccc3ccc(-c4nnc(C)o4)cc32)cc1`, the RP-LC retention time was determined as 776 s.

`CCOc1ccc(NS(=O)(=O)c2c(C)sc(C)c2-c2cc(C(F)(F)F)on2)cc1` gave an RP-LC retention time of 1220 s.

The molecule `O=C(NCCCN1CCN(c2ccc(F)cc2)CC1)C1CCCN(c2nc3cccnc3s2)C1` (stereo not given) gave an RP-LC retention time of 645 s.

`O=C(NCc1ccc(F)cc1F)c1cc2n(n1)CCCC2` returned an RP-LC retention time of 812 s.

Turning to `CCNc1cc(N2CCC(CCC(=O)NCc3ccccc3Cl)CC2)ncn1`, the RP-LC retention time came to 585 s.

Molecule `CN(C)CCCn1c(C2CC(=O)N(c3ccccc3F)C2)nc2ccccc21` (stereo not given) had an RP-LC retention time of 580 s.

`O=C(NC1(c2nc(-c3ccccc3)no2)CCCCC1)c1ccc(Br)cc1`: the RP-LC retention time was found to be 1240 s.

For the molecule `CC1CCN(S(=O)(=O)c2ccc3c(c2)CCCC(=O)N3CC(=O)Nc2ccc(F)cc2)CC1`, the RP-LC retention time was 959 s.

With `COc1ccc(C(O)Cn2ccn3nc(-c4ccc(C)c(C)c4)cc3c2=O)cc1` (stereo not given), the RP-LC retention time worked out at 947 s.

Regarding `Cc1ccc(C)c2c(=O)c3c([nH]c12)CCN(CC(=O)Nc1ccc(F)cc1F)C3`, the RP-LC retention time stood at 648 s.

For the molecule `Cn1cnc2c(C(=O)NCC3CCCO3)nn(-c3ccccc3)c2c1=O` (stereo not given), the RP-LC retention time was determined as 641 s.

`CCc1ccc(S(=O)(=O)NCc2c(-c3ccccc3)nc3sc(C)nn23)cc1` yielded an RP-LC retention time of 943 s.

Turning to `COC(=O)c1ccc2c(=O)n(-c3cccc(C)c3)c(N3CCN(c4ccccn4)CC3)nc2c1`, the RP-LC retention time amounted to 726 s.

Turning to `Cc1ccc(Sc2nccnc2N2CCCC(C(=O)Nc3ccc(F)c(C)c3)C2)cc1` (stereo not given), the RP-LC retention time came to 1230 s.

`COc1ccccc1-c1noc(C2CCCN2C(=O)NC2CCCCC2)n1` (stereo not given) yielded an RP-LC retention time of 858 s.

Regarding `Nc1ncnc(N2CCN(c3ccc(Cl)c(Cl)c3)CC2)c1[N+](=O)[O-]`, the RP-LC retention time came out at 909 s.

Turning to `CCNc1cc(N2CCCC(CCC(=O)N3CCN(c4ncccn4)CC3)C2)ncn1` (stereo not given), the RP-LC retention time worked out at 624 s.

`O=C(CN1CCN(Cc2ccc(F)cc2)C(=O)C1=O)N1CCN(c2ccccc2F)CC1`: the RP-LC retention time was 778 s.

For `Cc1ccc(NC(=O)C2CCN(C(=O)c3ncn4c3COC(c3ccc(F)cc3)C4)CC2)cc1Cl` (stereo not given), the RP-LC retention time worked out at 901 s.

For `O=C(CC1CCCCC1)NC(Cc1ccccc1)C(=O)N1CCN(c2ccccn2)CC1` (stereo not given), the RP-LC retention time came out at 695 s.

Regarding `Cc1cc(Cl)ccc1NC(=O)C1CCN(S(=O)(=O)c2cc(C(=O)N3CCCC3)cs2)CC1`, the RP-LC retention time amounted to 892 s.

In turn, `COc1cc(CN2CCC3(CC2)CC(O)CCO3)ccc1F` (stereo not given) displayed an RP-LC retention time of 541 s.

Turning to `Cn1cc(-c2nc(C(=O)NCc3ccc(C(F)(F)F)cc3)cs2)c2cccnc21`, the RP-LC retention time was found to be 1040 s.

The molecule `COc1cccc(-c2nc(-c3ccc4c(c3)oc(=O)n4C)no2)c1OC` returned an RP-LC retention time of 959 s.

Molecule `Cc1nn(-c2ccc(Cl)cc2)c2sc(C(=O)O)cc12` yielded an RP-LC retention time of 1010 s.

The molecule `Cc1ncn(CC(=O)Nc2ccccc2Cl)c(=O)c1C` returned an RP-LC retention time of 668 s.

Take `O=C(NCC1CCCO1)c1coc(NC(=O)C2CC2)n1` (stereo not given): the RP-LC retention time was found to be 571 s.

For the molecule `CCC(=O)NCc1nc2c(n1CC)CN(C(=O)c1cccc(Br)c1)CC2`, the RP-LC retention time was determined as 596 s.

For `Cc1ccc(C2Cn3cnc(C(=O)N4CCC(C(=O)NC5CCCCC5)CC4)c3CO2)cc1` (stereo not given), the RP-LC retention time worked out at 794 s.

The molecule `Cc1ccc(C2(O)C(=O)N(CC(=O)Nc3ccc(F)cc3F)c3ccccc32)cc1` (stereo not given) registered an RP-LC retention time of 715 s.

Molecule `COc1ncc(C(=O)N2CCN(c3ccccc3Cl)CC2)cn1` came in with an RP-LC retention time of 811 s.

`CCOC(=O)c1ccc(NC(=O)c2cc3ccccc3c(=O)s2)cc1`: the RP-LC retention time came to 947 s.

Molecule `CS(=O)(=O)Nc1ccc(-c2noc(COc3ccc(Cl)cc3)n2)cc1` had an RP-LC retention time of 974 s.

With `O=C(CCN1C(=O)c2ccccc2C1=O)OCC(=O)c1ccc(Cl)cc1Cl`, the RP-LC retention time came out at 954 s.

`CCc1nnc(-c2cn(CC(=O)Nc3ccc(F)c(F)c3)c3ccccc23)o1` showed an RP-LC retention time of 888 s.

The molecule `COC(=O)c1cc2c(=O)n(-c3ccc(Cl)c(Cl)c3)ccc2nc1C` had an RP-LC retention time of 915 s.

Take `CN(c1cccc(NC(=O)C2CCN(S(=O)(=O)Cc3ccccc3)CC2)c1)S(C)(=O)=O`: the RP-LC retention time was 806 s.

`COc1ccc(OC)c(S(=O)(=O)N2CCCC(C(=O)NCc3ccccc3)C2)c1` (stereo not given) returned an RP-LC retention time of 841 s.

For `O=C(Nc1ccc(F)c(F)c1)c1c(O)c2cccnc2n(-c2ccccc2)c1=O`, the RP-LC retention time amounted to 916 s.

Consider `CCc1ccc(NC(=O)NCCc2cn(CC(C)C)c3ncccc23)cc1`, for which the RP-LC retention time worked out at 919 s.

`Cc1ccc(-n2cc3c(N4CCCC(C(=O)NCc5ccc(N(C)C)cc5)C4)ncnc3n2)cc1` (stereo not given) registered an RP-LC retention time of 600 s.

`COc1ccc(C2C(C(=O)NCc3ccccn3)c3cc(OC)c(OC)cc3C(=O)N2C)cc1OC` (stereo not given): the RP-LC retention time was 595 s.

In the case of `CCOC(=O)c1c(C)[nH]c(CCC(=O)Nc2cc(F)ccc2F)c1C`, the RP-LC retention time worked out at 933 s.

Take `Cc1nc2cc(-c3noc(COc4ccc(Cl)cc4)n3)ccc2o1`: the RP-LC retention time came to 1060 s.

`O=C(NCc1ccc(F)cc1Cl)C1CCCN(c2nccnc2Sc2ccccc2)C1` (stereo not given) came in with an RP-LC retention time of 1100 s.

Regarding `CCOc1ccc(-c2nc(C3CC(=O)N(c4ccc(CC)cc4)C3)no2)cc1OCC` (stereo not given), the RP-LC retention time was found to be 1180 s.

`CC(=O)Nc1nsc(N2CCC(C(=O)N3CCN(c4ccccc4)CC3)CC2)n1`: the RP-LC retention time stood at 659 s.

`COc1ccc(-n2ccn3cc(-c4ccc(F)cc4F)nc3c2=O)cc1Cl` had an RP-LC retention time of 929 s.

Molecule `CCOc1ccc(C(=O)N2CCc3c(c(-c4nc(C5CC5)no4)nn3C)C2)cc1` returned an RP-LC retention time of 837 s.
